From patent US20050180935A1, “Deodorant cosmetic composition comprising a combination of zinc gluconate and an antiperspirant aluminum salt” (priority 2003, published 2005) come the findings set out here.

The assay can be described thus: deodorant efficacy test: odor intensity of incubated sweat rated by expert panel. On the set-up: species or system human. The settings on record: 24 h at 37° C, vs control sweat sample. The procedure: Collections of underarm sweat were taken in a sauna from 6 volunteers; the samples of individual sweat were stored in ice for a few hours and were initially almost odorless. They were mixed together and divided into 1 ml aliquots. The active agents were added to the aliquots, which were then incubated in an oven at 37° C. After incubation for 24 hours, a panel of experts evaluated the intensity of the odor in comparison with a control sample: 1 ml of sweat incubated without an active agent. The intensity was evaluated on a scale ranging from 0 (no odor) to 4 (very strong odor).
The results below are expressed as a percentage of variation of the intensity of the odor in comparison with the control sweat sample (mean of the percentages of variation at T24h).

Take `Oc1cc(Cl)ccc1Oc1ccc(Cl)cc1Cl` [(B), 2,4,4′-trichloro-2′-hydroxydiphenyl ether]: where the note is “0.4 mg AM/ml of sweat”, the “% of reduction in the intensity of the odor” value (“% of reduction” for short) is −49%.

For zinc gluconate [(A)], the “% of reduction” value (0.5 mg AM/ml of sweat) is on record as −19%.

For the compound zinc ricinoleate [(C)], the “% of reduction” value (0.3 mg AM/ml of sweat) is recorded as −4%.

aluminum chlorohydrate [ACH]: for the setting “0.1 mg AM/ml of sweat”, the “% of reduction” value was −37%.
